Reference: patent US20250170140A1, “PHARMACEUTICAL COMPOSITION FOR PREVENTING OR TREATING CANCER COMPRISING CARNITINE ACYLCARNITINE CARRIER INHIBITOR AND PEROXISOMAL BETA OXIDATION INHIBITOR” (priority 2021, published 2025)

Key:
Assay type in all cases: cell-based
ACHN cells = assay: SRB assay, renal cell carcinoma cell line ACHN
Method: (§1) As a comparison, omeprazole (KN510) and trimetazidine (KN713), a 3-ketoacyl CoA thiolase inhibitor, were co-treated. […] After cell inoculation, 96-well cell culture plates were incubated for 24 hours before the addition of experimental drugs. […] The cells were then incubated in a CO2 incubator for 48 hours, after which the assay was terminated by the addition of cold TCA. Cells were fixed in situ by gently adding 50 μl of cold 50% (w/v) TCA (final concentration: 10% TCA) and incubated at 4° C. for 60 min. The supernatant was discarded, and the plate was washed five times with distilled water and air dried. Sulforhodamine B (SRB) solution (100 μl) of 0.4% (w/v) in 1% acetic acid was added to each well, and the plate was left at room temperature for 10 min. After staining, unbound dye was removed by washing five times with 1% acetic acid, and the plate was air-dried. The bound dye was then solubilized with 10 mM trizma base, and the absorbance was recorded at 515 nm using an automated plate reader. […] The predicted synergistic activity of a combination of the present invention can be calculated using the Colby Equation in Equation 1 (S.R. Colby, Weeds, 1967, pp. 15, 20-22): In the present invention, the actual measure of anti-cancer activity of the combination treatment was the inhibition rate of cancer cell growth (%), and the predicted value (E) of the combination treatment was measured by substituting it into the above Colby Equation.

SR cells = assay: SRB assay, leukemia cell line SR
Method: as §1

HCT-116 cells = assay: SRB assay, colon cancer cell line HCT-116
Method: as §1

[1] = Homo sapiens, KN510 100 μM, read-out: Inhibition rate of cancer cell growth (%) (Actual value)
[2] = Homo sapiens, KN510 200 μM, read-out: Inhibition rate of cancer cell growth (%) (Actual value)
[3] = Homo sapiens, KN714 5 μM, read-out: Inhibition rate of cancer cell growth (%) (Actual value)
[4] = Homo sapiens, KN714 10 μM, read-out: Inhibition rate of cancer cell growth (%) (Actual value)

In the case of COc1ccc2[nH]c([S+]([O-])Cc3ncc(C)c(OC)c3C)nc2c1 (stereo not drawn) [KN510, omeprazole], the inhibition at 100 µM (ACHN cells; [1]) is reported as 38.9%, the inhibition at 200 µM (ACHN cells; [2]) is reported as 80.1% and the “Cancer cell growth rate Average (%)” value (ACHN cells; KN510 100 μM) is reported as 61.12%. For the same compound, the “Cancer cell growth rate Average (%)” value (ACHN cells; KN510 200 μM) was 19.93%, the inhibition at 100 µM (SR cells; [1]) was 35.1% and the inhibition at 200 µM (SR cells; [2]) was 70.1%. The “Cancer cell growth rate Average (%)” value (SR cells; KN510 100 μM) was 64.90%, the “Cancer cell growth rate Average (%)” value (SR cells; KN510 200 μM) was 29.89% and the inhibition at 100 µM (HCT-116 cells; [1]) was 15.7%. The inhibition at 200 µM (HCT-116 cells; [2]) was 31.1%, the “Cancer cell growth rate Average (%)” value (HCT-116 cells; KN510 100 μM) was 84.28% and the “Cancer cell growth rate Average (%)” value (HCT-116 cells; KN510 200 μM) was 68.86%.
With CSc1ccc2c(c1)N(CCC1CCCCN1C)c1ccccc1S2 (stereo not drawn) [KN714, 10-[2-(1-methyl-2-piperidyl)ethyl]-2-(methylthio)phenothiazine] the inhibition at 5 µM (ACHN cells; [3]) was -2.76%, the inhibition at 10 µM (ACHN cells; [4]) was 29.6% and the “Cancer cell growth rate Average (%)” value (ACHN cells; KN714 5 μM) was 102.76%. The “Cancer cell growth rate Average (%)” value (ACHN cells; KN714 10 μM) was 70.39%, the inhibition at 5 µM (SR cells; [3]) was 37.2% and the inhibition at 10 µM (SR cells; [4]) was 111%. The “Cancer cell growth rate Average (%)” value (SR cells; KN714 5 μM) was 62.75%, the “Cancer cell growth rate Average (%)” value (SR cells; KN714 10 μM) was −11.34% and the inhibition at 5 µM (HCT-116 cells; [3]) was 7.99%. The inhibition at 10 µM (HCT-116 cells; [4]) was 32.2%, the “Cancer cell growth rate Average (%)” value (HCT-116 cells; KN714 5 μM) was 92.01% and the “Cancer cell growth rate Average (%)” value (HCT-116 cells; KN714 10 μM) was 67.80%.
